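Values below derive from 48-hour exposures of cells grown in 96-well plates, with endpoints linearly interpolated between the two concentrations bracketing the appropriate inhibition level. The concentration for 50% growth inhibition is given as GI50. TGI marks complete inhibition of growth.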
Columns and labels:
Test in all cases: inhibition of tumour cell growth, NCI panel, 48 h
OVCAR-5 ovarian = test system: OVCAR-5 ovarian
MALME-3M melanoma = test system: MALME-3M melanoma
UACC-62 melanoma = test system: UACC-62 melanoma
UACC-257 melanoma = test system: UACC-257 melanoma
IGROV1 ovarian = test system: IGROV1 ovarian
CAKI-1 renal = test system: CAKI-1 renal
SW-620 colon = test system: SW-620 colon
PC-3 prostate = test system: PC-3 prostate
NCI-H522 lung = test system: NCI-H522 lung
EKVX NSCLC = test system: EKVX NSCLC

Row | SMILES | GI50 (OVCAR-5 ovarian) | TGI (OVCAR-5 ovarian) | GI50 (MALME-3M melanoma) | TGI (MALME-3M melanoma) | GI50 (UACC-62 melanoma) | TGI (UACC-62 melanoma) | GI50 (UACC-257 melanoma) [µM] | TGI (UACC-257 melanoma) [µM] | GI50 (IGROV1 ovarian) | TGI (IGROV1 ovarian) | GI50 (CAKI-1 renal) [µM] | TGI (CAKI-1 renal) [µM] | GI50 (SW-620 colon) | TGI (SW-620 colon) | GI50 (PC-3 prostate) [µM] | TGI (PC-3 prostate) [µM] | TGI (NCI-H522 lung) | TGI (EKVX NSCLC) | GI50 (NCI-H522 lung) | GI50 (EKVX NSCLC)
1 | COc1ccc(-c2nnc(COc3ccc(NC(=O)Nc4ccc(Cl)c(C(F)(F)F)c4)cc3F)o2)cc1 | 10.9 µM | 71.4 µM | 2.72 µM | 7.63 µM | 3.12 µM | 16.4 µM | 2.41 | 11.2 | 4.77 µM | 26.4 µM | 4.07 | 29.2 | 3.42 µM | 27.2 µM | 1.84 | 12.7 |  |  |  | 
2 | Fc1ccc(C2SCc3nc4ccccc4n32)cc1Cl (centres undefined) |  | 66.6 µM |  | 31 µM |  | 25.6 µM |  | 56.7 |  |  |  | 38.4 |  | > 100 µM |  |  | 35.2 µM | 92.8 µM |  | 
3 | CC1=N/C(=C\c2cccc([N+](=O)[O-])c2)C(=O)O1 |  | > 100 µM |  | > 100 µM |  | > 100 µM |  | > 100 |  | > 100 µM |  |  |  | > 100 µM |  |  | > 100 µM | > 100 µM |  | 
4 | Cc1nc2ccccc2c(=O)n1-c1ccccc1F |  | > 100 µM |  | > 100 µM |  | > 100 µM |  | > 100 |  | > 100 µM |  | > 100 |  | > 100 µM |  |  | > 100 µM | > 100 µM |  | 
5 | CCCS(=O)(=O)/C(=C(\c1ccc(Br)cc1)S(=O)(=O)CCC)c1ccc(Br)cc1 |  | > 10 µM |  | > 10 µM |  | > 10 µM |  | > 10 |  | > 10 µM |  | > 10 |  | > 10 µM |  |  | > 10 µM | > 10 µM |  | 
6 | COC(=O)C(=Cc1cc(OC)c(OC)c(OC)c1-c1cc2c(cc1C(C)=O)OCO2)C(=O)OC |  | 74.1 µM |  | 78.3 µM |  | 73.8 µM |  | 188 |  | 134 µM |  | 108 |  | 102 µM |  |  | 62.2 µM | > 211 µM |  | 
7 | C/C(=C1/CCC/C(=C(/C)c2ccccc2)C1=O)c1ccccc1 |  | > 100 µM |  | 46.7 µM |  | > 100 µM |  | 74.9 |  | > 100 µM |  |  |  | > 100 µM |  |  | > 100 µM | > 100 µM |  | 
8 | CCCCCCC(=O)C/C(=N/NC(N)=S)C(=O)NC1C2CC3CC(C2)CC1C3 (centres undefined) |  | > 100 µM |  | > 100 µM |  | > 100 µM |  | > 100 |  | > 100 µM |  |  |  | > 100 µM |  |  |  | > 100 µM |  | 
9 | COc1cccc(N2C(=O)[C@H]3CC(C)c4c([nH]c5ccccc45)[C@H]3C2=O)c1 (some centres undefined) |  |  |  | > 100 µM |  | > 100 µM |  | > 100 |  | > 100 µM |  | > 100 |  |  |  |  | > 100 µM | > 100 µM |  | 
10 | CC(C)CCCC(=O)CCCCCCC(=O)CCN(O)C(=O)C(N)CO (centres undefined) |  | 50.6 µM |  | 36.6 µM |  | 34.6 µM |  | 35.1 |  | 31.9 µM |  | 39.4 |  | > 100 µM |  | 28.2 |  | 27.5 µM |  | 
11 | C/C=C1/C(=C/c2[nH]c(/C=c3\[nH]/c(=C/C4=NC(=O)C(CC)=C4C)c(C)c3CCC(=O)O)c(CCC(=O)O)c2C)NC(=O)C1C (centres undefined) | > 150 µg/mL | > 150 µg/mL | > 150 µg/mL | > 150 µg/mL | > 150 µg/mL | > 150 µg/mL |  |  | > 150 µg/mL | > 150 µg/mL |  |  | > 150 µg/mL | > 150 µg/mL |  |  | > 150 µg/mL | > 150 µg/mL | > 150 µg/mL | > 150 µg/mL
12 | COC(C(O)c1ccc2c(c1)OCO2)P(=O)(c1ccccc1)c1ccccc1 (centres undefined) |  | > 100 µM |  | > 100 µM |  | > 100 µM |  | > 100 |  | > 100 µM |  | > 100 |  | > 100 µM |  |  | > 100 µM | > 100 µM |  | 
13 | COc1ccc(CNc2nc3cc(C(F)(F)F)ccc3nc2C)cc1OC |  | > 100 µM |  | 44.1 µM |  | > 100 µM |  | 42.6 |  | > 100 µM |  | > 100 |  | > 100 µM |  |  | 92.7 µM | 72.6 µM |  | 
14 | Cc1ccc(-c2cc(=O)c3cc(C)c(C)c(C(=O)O)c3o2)cc1C |  | > 100 µM |  | > 100 µM |  | > 100 µM |  | > 100 |  | > 100 µM |  | 89.5 |  | > 100 µM |  |  | > 100 µM | > 100 µM |  | 
15 | O=C(Nc1ccc(Cl)cc1Cl)C(=O)C(C(=O)c1ccncc1)C1OC(=O)c2ccccc21 (centres undefined) |  | > 100 µM |  | > 100 µM |  | > 100 µM |  | > 100 |  | > 100 µM |  | > 100 |  | > 100 µM |  |  | > 100 µM | > 100 µM |  | 
16 | CC(=O)O.[Au].c1ccc([PH+](c2ccccc2)c2ccccc2)cc1 | 14.4 µM | 28.6 µM | 1.62 µM | 3.15 µM | 1.47 µM | 4.03 µM | 1.82 | 5.68 | 2.24 µM | 6.95 µM | 2.27 | 5.35 |  |  |  |  | 1.96 µM | 8.56 µM | 0.526 µM | 3.61 µM
17 | COC1=CC2(C=CC1=O)c1cc(OC)c(OC)cc1CCN2C(=O)c1ccccc1 (centres undefined) |  |  |  | > 100 µM |  | > 100 µM |  | > 100 |  | > 100 µM |  | > 100 |  | > 100 µM |  |  | > 100 µM | > 100 µM |  | 
18 | COC(=O)c1cc(C)c(C)c2c1NC(=O)CNC2=O |  |  |  |  |  | > 100 µM |  | > 100 |  | > 100 µM |  | > 100 |  | > 100 µM |  |  |  | > 100 µM |  | 
19 | N#CCc1ccc(C(C#N)/C(CCCC(=O)Nc2cccc([N+](=O)[O-])c2)=N/NC(N)=S)cc1 (centres undefined) |  | > 100 µM |  | > 100 µM |  | > 100 µM |  | > 100 |  | > 100 µM |  | > 100 |  | > 100 µM |  |  | > 100 µM | > 100 µM |  | 
20 | C=C[C@H]1C[C@@H]2C[C@@H]3[C@H]4C/C=C\C(=O)NCCCC5NC(=O)C(=C(O)/C=C/[C@@H]4CC(=O)[C@H]3[C@@H]2[C@H]1C)C5=O (some centres undefined) | 0.436 µM | 1.72 µM | 0.225 µM | 0.56 µM | 1.45 µM | 2.88 µM | 0.191 | 0.369 | 0.212 µM | 0.434 µM | 0.191 | 0.374 | 1.66 µM | 3.13 µM | 1.36 | 2.76 |  | 2.54 µM |  | 1.13 µM
21 | CC(=O)N1C/C(=C\c2ccc(N(C)C)cc2)C(=O)/C(=C/c2ccc(N(C)C)cc2)C1 |  | > 100 µM |  | > 100 µM |  | > 100 µM |  | > 100 |  | > 100 µM |  | > 100 |  | > 100 µM |  |  |  |  |  | 

Reference: PubChem BioAssay (NCI)
